The text below walks through data of patent US20100137275A1 (IPSEN PHARMA S.A.S., priority 2007, published 2010).

Data set [1] addresses T1, purified recombinant Cdc25-C enzyme (MBP-Cdc25C protein) (Homo sapiens, UniProt P30307).
T1 construct: made in house
T1 sequence (P30307 1-473): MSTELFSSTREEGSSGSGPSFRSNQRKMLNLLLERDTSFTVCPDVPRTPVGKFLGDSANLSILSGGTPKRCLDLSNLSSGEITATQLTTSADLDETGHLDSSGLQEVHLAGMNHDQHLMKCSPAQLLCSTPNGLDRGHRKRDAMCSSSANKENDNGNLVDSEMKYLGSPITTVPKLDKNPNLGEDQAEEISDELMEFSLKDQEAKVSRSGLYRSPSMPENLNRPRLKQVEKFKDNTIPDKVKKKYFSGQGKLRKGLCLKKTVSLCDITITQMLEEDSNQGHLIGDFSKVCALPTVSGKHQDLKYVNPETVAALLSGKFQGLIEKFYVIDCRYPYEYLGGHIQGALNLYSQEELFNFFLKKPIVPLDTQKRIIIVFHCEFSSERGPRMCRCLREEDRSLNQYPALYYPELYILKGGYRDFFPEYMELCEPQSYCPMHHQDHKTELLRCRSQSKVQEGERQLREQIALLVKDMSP
Nature of the data set: Phosphatase activity of the purified recombinant Cdc25C enzyme (OMFP dephosphorylation, fluorescence). In kind it is biochemical. The conditions noted are these: OMFP 500 μM, 4 hours at 30° C. The method, boiled down: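 MBP-Cdc25C fusion protein in 50 mM Tris-HCl pH 8.2, 50 mM NaCl, 1 mM DTT, 20% glycerol; reaction started with 500 μM OMFP (final). Compounds tested at decreasing concentrations from 40 μM; 4 h at 30 °C, OMF fluorescence read at 475 nm. IC50 from three independent experiments by linear regression over the linear part of the sigmoid.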

Data set [2] relates to DU145 (human prostate cancer cells). Nature of the data set: Anti-proliferative activity on DU-145 cell line (WST1 colorimetric test). The data set is classed as cell-based. The following applies: DU-145, 96 h, 96 hours treatment, read-out: IC50 on the proliferation of the DU-145 cell line. As for the experimental part:
(§1) By way of an example, the effect of treating two human cell lines Mia-Paca2 and DU145 with the compounds of the examples described hereinbefore will be studied. The cell lines DU145 (human prostate cancer cells) and Mia-PaCa2 (human pancreas cancer cells) were obtained from the American Tissue Culture Collection (Rockville, Md., USA). A 96-well plate was inoculated on day 0 with cells placed in 80 μl of Dulbecco's modified Eagle's medium (Gibco-Brl, Cergy-Pontoise, France) with 10% heat-inactivated foetal calf serum (Gibco-Brl, Cergy-Pontoise, France), 50000 units/1 of penicillin and 50 mg/l of streptomycin (Gibco-Brl, Cergy-Pontoise, France), and 2 mM of glutamine (Gibco-Brl, Cergy-Pontoise, France). The cells were treated on day 1 with increasing concentrations of each test compound up to 10 μM for 96 hours. At the end of this period, cell proliferation is quantified by means of a colorimetric test based on cleavage of the tetrazolium salt WST1 by the mitochondrial dehydrogenases in the viable cells, resulting in formation of formazan (Boehringer Mannheim, Meylan, France). These tests are performed in duplicate with 8 determinations per concentration tested. For each compound to be tested, the values within the linear part of the sigmoid curve were subjected to linear regression analysis and used to estimate the IC50 inhibitory concentration. The products are solubilised in dimethylsulfoxide (DMSO) at a concentration of 10^−2 M and used in culture with a final DMSO concentration of 0.1%.

Data set [3] deals with Mia-PaCa2 (human pancreas cancer cells). As to the kind of experiment: Anti-proliferative activity on Mia-Paca2 cell line (WST1 colorimetric test). In kind it is cell-based. The following applies: MIA PaCa-2, 96 h, 96 hours treatment, read-out: IC50 on proliferation of the Mia-Paca2 cell line. Here is the method: as §1

SMILES strings stand for the structures.

The melting point is the temperature, or range, at which the solid turns liquid. Take `CN(CCNC(=S)Nc1ccc(Cl)cc1)CCNc1cc(N(C)C)nc(N(C)C)n1` [Example 73, N-{2-[(2-{[2,6-bis(dimethylamino)pyrimidin-4-yl]amino}ethyl)(methyl)amino]ethyl}-N′-(4-chlorophenyl)thiourea]: the melting point is 127 to 129 °C. For the same compound, the IC50 in data set [1] is ≤ 5 µM. Besides, the IC50 in data set [2] is ≤ 5 µM. The IC50 in data set [3] is ≤ 5 µM.

`CN(CCNC(=O)Nc1cccc2nsnc12)CCNc1cc(N2CCCC2)nc(N2CCCC2)n1` [Example 15, N-2,1,3-benzothiadiazol-4-yl-N′-{2-[{2-[(2,6-dipyrrolidin-1-ylpyrimidin-4-yl)amino]ethyl}(methyl)amino]ethyl}urea] showed a melting point of 126 to 128 °C. Besides, in data set [1], the IC50 is ≤ 1 µM. For the same compound, in data set [2], the IC50 was ≤ 5 µM. In addition, the IC50 in data set [3] was ≤ 5 µM.

`CN(CCNC(=S)Nc1ccccc1F)CCNc1cc(N2CCCC2)nc(N2CCCC2)n1` [Example 42, N-{2-[{2-[(2,6-dipyrrolidin-1-ylpyrimidin-4-yl)amino]ethyl}(methyl)amino]ethyl}-N′-(2-fluorophenyl)thiourea] returned a melting point of 105 to 107 °C. Besides, the IC50 in data set [1] was ≤ 5 µM. Moreover, the IC50 in data set [2] is ≤ 5 µM. Besides, the IC50 in data set [3] is ≤ 5 µM.

`CN(CCNC(=S)Nc1ccc(Cl)nc1)CCNc1cc(N2CCCC2)nc(N2CCCC2)n1` [Example 53, N-(6-chloropyridin-3-yl)-N′-{2-[{2-[(2,6-dipyrrolidin-1-ylpyrimidin-4-yl)amino]ethyl}(methyl)amino]ethyl}thiourea] returned a melting point of 96 to 98 °C. The IC50 in data set [1] is ≤ 1 µM. Further, the IC50 in data set [2] is ≤ 5 µM. For the same compound, the IC50 in data set [3] was ≤ 5 µM.

On to `CN(CCNC(=S)Nc1cccnc1Oc1ccc(F)cc1F)CCNc1cc(N2CCCC2)nc(N2CCCC2)n1` [Example 47, N-[2-(2,4-difluorophenoxy)pyridin-3-yl]-N′-{2-[{2-[(2,6-dipyrrolidin-1-ylpyrimidin-4-yl)amino]ethyl}(methyl)amino]ethyl}thiourea], for which the melting point lay in the range of 108 to 110 °C. Besides, the IC50 in data set [1] was ≤ 1 µM. In data set [2], the IC50 was ≤ 5 µM. In data set [3], the IC50 was ≤ 5 µM.

On to `CN(CCNC(=O)Nc1ccc(Cl)c(Cl)c1)CCNc1cc(N2CCCC2)nc(N2CCCC2)n1` [Example 17, N-(3,4-dichlorophenyl)-N′-{2-[{2-[(2,6-dipyrrolidin-1-ylpyrimidin-4-yl)amino]ethyl}(methyl)amino]ethyl}urea], for which the melting point lay in the range of 138 to 139 °C. Further, the IC50 in data set [1] was ≤ 1 µM. Besides, the IC50 in data set [2] was ≤ 5 µM. In addition, the IC50 in data set [3] is ≤ 5 µM.
